Measurements published in ChEMBL document CHEMBL6092203, “Discovery of Novel PROTAC-Based HPK1 Degraders with High Potency and Selectivity for Cancer Immunotherapy” (J Med Chem, 2024).

What was measured:
[1] = biological target: T1, Protein cereblon/Mitogen-activated protein kinase kinase kinase kinase 1 (Homo sapiens, UniProt Q92918+Q96SW2); assay: PROTAC activity at CRBN/HPK1 in human Jurkat cells incubated for 24 hrs by Western blotting analysis; type: cell-based
Target sequence in this assay (Q92918 whole entry): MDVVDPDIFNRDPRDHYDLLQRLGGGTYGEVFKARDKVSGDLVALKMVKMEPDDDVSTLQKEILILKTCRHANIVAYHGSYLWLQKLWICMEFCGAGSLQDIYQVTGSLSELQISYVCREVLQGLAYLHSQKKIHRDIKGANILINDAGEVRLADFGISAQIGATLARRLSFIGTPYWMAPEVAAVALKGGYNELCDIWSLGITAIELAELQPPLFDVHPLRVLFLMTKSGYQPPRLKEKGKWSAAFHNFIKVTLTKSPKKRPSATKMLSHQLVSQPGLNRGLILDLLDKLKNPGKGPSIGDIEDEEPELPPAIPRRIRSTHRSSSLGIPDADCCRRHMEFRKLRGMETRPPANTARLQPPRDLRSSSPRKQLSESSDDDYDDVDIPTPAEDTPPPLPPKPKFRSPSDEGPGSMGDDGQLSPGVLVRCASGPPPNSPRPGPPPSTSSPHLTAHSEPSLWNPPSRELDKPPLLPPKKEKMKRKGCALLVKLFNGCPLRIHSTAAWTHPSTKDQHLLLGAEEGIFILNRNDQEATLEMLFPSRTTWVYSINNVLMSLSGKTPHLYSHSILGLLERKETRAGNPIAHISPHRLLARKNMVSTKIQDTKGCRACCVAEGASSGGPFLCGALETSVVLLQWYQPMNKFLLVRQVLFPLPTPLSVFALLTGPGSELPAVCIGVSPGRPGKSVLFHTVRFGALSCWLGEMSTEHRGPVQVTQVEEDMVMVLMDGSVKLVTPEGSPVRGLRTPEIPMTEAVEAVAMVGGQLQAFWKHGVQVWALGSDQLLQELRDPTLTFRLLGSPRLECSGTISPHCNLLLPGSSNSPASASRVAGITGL
Target sequence in this assay (Q96SW2 whole entry): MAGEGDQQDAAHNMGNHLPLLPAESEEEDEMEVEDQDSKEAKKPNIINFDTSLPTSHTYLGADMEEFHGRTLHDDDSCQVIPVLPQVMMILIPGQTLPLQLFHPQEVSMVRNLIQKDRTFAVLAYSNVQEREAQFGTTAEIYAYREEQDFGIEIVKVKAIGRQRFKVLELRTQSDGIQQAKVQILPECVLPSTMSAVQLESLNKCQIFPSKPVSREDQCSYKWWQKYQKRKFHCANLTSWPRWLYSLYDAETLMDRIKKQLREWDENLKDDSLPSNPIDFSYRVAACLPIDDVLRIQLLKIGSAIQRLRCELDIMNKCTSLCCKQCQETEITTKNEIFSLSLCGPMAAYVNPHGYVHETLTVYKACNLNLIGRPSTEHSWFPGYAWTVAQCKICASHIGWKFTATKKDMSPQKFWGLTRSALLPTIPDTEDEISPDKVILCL

[2] = biological target: T1, Protein cereblon/Mitogen-activated protein kinase kinase kinase kinase 1; assay: PROTAC activity at CRBN/HPK1 in human Jurkat cells assessed as maximum degradation incubated for 24 hrs by Western blotting analysis; type: cell-based
Target sequence in this assay (Q92918 whole entry, looked up): as the sequence (Q92918 whole entry) above
Target sequence in this assay (Q96SW2 whole entry, looked up): as the sequence (Q96SW2 whole entry) above

[3] = Cmax in mouse at 10 mg/kg, po measured upto 24 hrs by LC-MS analysis; type: ADME, organism-based; details: in vivo
[4] = AUC in mouse at 2 mg/kg, iv measured upto 24 hrs by LC-MS analysis; type: ADME, organism-based; details: in vivo
[5] = Apparent volume of distribution in mouse at 2 mg/kg, iv measured upto 24 hrs by LC-MS analysis; type: ADME, organism-based; details: in vivo
[6] = Clearance in mouse at 2 mg/kg, iv measured upto 24 hrs by LC-MS analysis; type: ADME, organism-based; details: in vivo
[7] = Half-life in mouse at 10 mg/kg measured upto 24 hrs by LC-MS analysis; type: ADME, organism-based; details: in vivo
[8] = AUC in mouse at 10 mg/kg, po measured upto 24 hrs by LC-MS analysis; type: ADME, organism-based; details: in vivo
[9] = Half-life in mouse at 2 mg/kg, iv measured upto 24 hrs by LC-MS analysis; type: ADME, organism-based; details: in vivo
[10] = Oral bioavailability in mouse at 10 mg/kg measured upto 24 hrs by LC-MS analysis; type: ADME, organism-based; details: in vivo
[11] = biological target: T2, Mitogen-activated protein kinase kinase kinase kinase 3 (Homo sapiens, UniProt Q8IVH8); assay: Inhibition of GLK (unknown origin)
T2 sequence (Q8IVH8 whole entry): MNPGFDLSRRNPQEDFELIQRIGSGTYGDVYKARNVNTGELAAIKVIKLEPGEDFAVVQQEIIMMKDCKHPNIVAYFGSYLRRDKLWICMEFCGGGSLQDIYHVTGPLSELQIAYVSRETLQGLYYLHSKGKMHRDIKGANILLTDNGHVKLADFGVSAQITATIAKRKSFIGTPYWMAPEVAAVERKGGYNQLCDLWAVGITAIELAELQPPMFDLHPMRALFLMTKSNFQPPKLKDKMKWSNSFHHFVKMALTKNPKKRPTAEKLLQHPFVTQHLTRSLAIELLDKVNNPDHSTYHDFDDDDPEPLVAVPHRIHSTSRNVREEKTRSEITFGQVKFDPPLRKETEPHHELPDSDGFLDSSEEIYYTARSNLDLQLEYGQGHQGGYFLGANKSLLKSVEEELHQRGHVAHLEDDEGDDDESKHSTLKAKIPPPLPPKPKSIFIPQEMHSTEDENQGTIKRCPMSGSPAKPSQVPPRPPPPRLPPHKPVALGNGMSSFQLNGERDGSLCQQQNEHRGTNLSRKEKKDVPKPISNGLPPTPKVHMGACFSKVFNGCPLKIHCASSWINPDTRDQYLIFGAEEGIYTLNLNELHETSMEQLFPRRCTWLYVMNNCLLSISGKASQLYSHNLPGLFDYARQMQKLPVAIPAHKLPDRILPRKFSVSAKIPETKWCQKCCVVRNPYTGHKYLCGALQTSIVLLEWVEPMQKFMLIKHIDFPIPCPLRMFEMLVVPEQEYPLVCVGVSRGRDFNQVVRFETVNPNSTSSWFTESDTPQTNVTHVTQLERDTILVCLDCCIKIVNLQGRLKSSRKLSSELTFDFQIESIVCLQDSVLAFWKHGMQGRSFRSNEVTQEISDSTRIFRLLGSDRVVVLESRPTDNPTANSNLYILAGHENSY

[12] = biological target: Mitogen-activated protein kinase kinase kinase kinase 1 (Homo sapiens, UniProt Q92918); assay: Inhibition of HPK1 (unknown origin)
Mitogen-activated protein kinase kinase kinase kinase 1, sequence (Q92918 whole entry): as the sequence (Q92918 whole entry) above

DC50 [1] [µM] | Emax [2] [%] | Compound | further results
0.0306 | 76 | COCCn1cc(-c2c[nH]c3ncc(-c4ccc(N5CCC(CC6CCN(C(=O)c7ccc(Cl)c(N8CCC(=O)NC8=O)c7)CC6)CC5)nc4)nc23)cn1 | 
0.0093 | 93 | Cn1cc(-c2c[nH]c3ncc(-c4ccc(N5CCC(CC6CCN(C(=O)c7ccc(Cl)c(N8CCC(=O)NC8=O)c7)CC6)CC5)nc4)nc23)cn1 | Cmax [3]: 0.84 µg/mL; AUC at 24 h [4]: 4.03 µg·h/mL; Vz [5]: 0.701 L/kg; clearance [6]: 0.496 L/h/kg; half-life [7]: 3.35 h; AUC at 24 h [8]: 2.21 µg·h/mL; Emax ([2]; tested as the 2H-labelled form): 89%; half-life [9]: 0.98 h; bioavailability [10]: 17.7%
0.0127 |  | [2H]C([2H])([2H])n1cc(-c2c[nH]c3ncc(-c4ccc(N5CCC(CC6CCN(C(=O)c7ccc(Cl)c(N8CCC(=O)NC8=O)c7)CC6)CC5)nc4)nc23)cn1 | 
0.0293 | 73 | CCN1CCC(n2cc(-c3c[nH]c4ncc(-c5ccc(N6CCC(OC7CCN(C(=O)c8ccc(Cl)c(N9CCC(=O)NC9=O)c8)CC7)CC6)c(C)c5)nc34)cn2)CC1 | 
0.0329 | 92 | O=C1CCN(c2cc(C(=O)N3CCC(CC4CCN(c5ccc(-c6cnc7[nH]cc(-c8cn[nH]c8)c7n6)cn5)CC4)CC3)ccc2Cl)C(=O)N1 | 
0.0523 | 87 | O=C1CCN(c2cc(C(=O)N3CCC(CC4CCN(c5ccc(-c6cnc7[nH]cc(-c8cnn(C9CC9)c8)c7n6)cn5)CC4)CC3)ccc2Cl)C(=O)N1 | 
0.0239 | 67 | O=C1CCN(c2cc(C(=O)N3CCC(CC4CCN(c5ccc(-c6cnc7[nH]cc(-c8cnn(C(F)F)c8)c7n6)cn5)CC4)CC3)ccc2Cl)C(=O)N1 | 
0.386 | 52 | CCN1CCC(n2cc(-c3c[nH]c4ncc(-c5ccc(N6CCC(OC7CCN(C(=O)c8ccc(Cl)c(N9CCC(=O)NC9=O)c8)CC7)CC6)cc5)nc34)cn2)CC1 | 
0.23 | 58 | CCN1CCC(n2cc(-c3c[nH]c4ncc(-c5ccc(N6CCC(F)(CN7CCN(C(=O)c8ccc(Cl)c(N9CCC(=O)NC9=O)c8)CC7)CC6)cc5)nc34)cn2)CC1 | 
 |  | CCN1CCC(n2cc(-c3c[nH]c4ncc(-c5cnc(OCC6CCOCC6)c(F)c5)nc34)cn2)CC1 | IC50 [11]: 0.0636 µM; IC50 [12]: 0.00267 µM
0.0072 | 78 | CCN1CCC(n2cc(-c3c[nH]c4ncc(-c5ccc(N6CCC(OC7CCN(C(=O)c8ccc(Cl)c(N9CCC(=O)NC9=O)c8)CC7)CC6)c(F)c5)nc34)cn2)CC1 | 
0.0524 | 81 | CCN1CCC(n2cc(-c3c[nH]c4ncc(-c5ccc(N6CCC(C)(CN7CCN(C(=O)c8ccc(Cl)c(N9CCC(=O)NC9=O)c8)CC7)CC6)cc5)nc34)cn2)CC1 | 
0.214 | 64 | CC(C)(C#N)n1cc(-c2c[nH]c3ncc(-c4ccc(N5CCC(CC6CCN(C(=O)c7ccc(Cl)c(N8CCC(=O)NC8=O)c7)CC6)CC5)nc4)nc23)cn1 | 
0.176 | 63 | CCN1CCC(n2cc(-c3c[nH]c4ncc(-c5ccc(N6CCC(CC7CCN(C(=O)c8ccc(Cl)c(N9CCC(=O)NC9=O)c8)CC7)CC6)c(F)c5)nc34)cn2)CC1 | 
0.083 | 84 | O=C1CCN(c2cc(C(=O)N3CCC(CC4CCN(c5ccc(-c6cnc7[nH]cc(-c8cnn([C@@H]9CCOC9)c8)c7n6)cn5)CC4)CC3)ccc2Cl)C(=O)N1 | 
0.385 | 56 | CCN1CCC(n2cc(-c3c[nH]c4ncc(-c5ccc(N6CCC(CC7CCCN(C(=O)c8ccc(Cl)c(N9CCC(=O)NC9=O)c8)CC7)CC6)nc5)nc34)cn2)CC1 (stereo not given) | 
0.0012 | 93 | CCN1CCC(n2cc(-c3c[nH]c4ncc(-c5ccc(N6CCC(CC7CCN(C(=O)c8ccc(Cl)c(N9CCC(=O)NC9=O)c8)CC7)CC6)nc5)nc34)cn2)CC1 | Cmax [3]: 0.0816 µg/mL; AUC at 24 h [4]: 0.874 µg·h/mL; Vz [5]: 1.03 L/kg; clearance [6]: 1.65 L/h/kg; AUC at 24 h [8]: 0.295 µg·h/mL; half-life [9]: 4.63 h; bioavailability [10]: 6.67%
0.029 | 84 | O=C1CCN(c2cc(C(=O)N3CCC(CC4CCN(c5ccc(-c6cnc7[nH]cc(-c8cnn(CCO)c8)c7n6)cn5)CC4)CC3)ccc2Cl)C(=O)N1 | 
0.632 | 52 | O=C1CCN(c2cc(C(=O)N3CCC(CC4CCN(c5ccc(-c6cnc7[nH]cc(-c8cnn(CC9CC9)c8)c7n6)cn5)CC4)CC3)ccc2Cl)C(=O)N1 | 
0.616 | 53 | CCN1CCC(n2cc(-c3c[nH]c4ncc(-c5ccc(N6CCC(CC7CCN(C(=O)c8ccc(C)c(N9CCC(=O)NC9=O)c8)CC7)CC6)cc5)nc34)cn2)CC1 | 
0.0053 | 78 | O=C1CCN(c2cc(C(=O)N3CCC(CC4CCN(c5ccc(-c6cnc7[nH]cc(-c8cnn(CCF)c8)c7n6)cn5)CC4)CC3)ccc2Cl)C(=O)N1 | Cmax [3]: 4.68 µg/mL; AUC at 24 h [4]: 7.4 µg·h/mL; Vz [5]: 0.917 L/kg; clearance [6]: 0.27 L/h/kg; half-life [7]: 3.18 h; AUC at 24 h [8]: 9.2 µg·h/mL; half-life [9]: 2.35 h; bioavailability [10]: 25.1%
0.0021 | 77 | CCN1CCC(n2cc(-c3c[nH]c4ncc(-c5ccc(N6CCC(CN7CCN(C(=O)c8ccc(Cl)c(N9CCC(=O)NC9=O)c8)CC7)CC6)nc5)nc34)cn2)CC1 | 
0.0235 | 66 | CCN1CCC(n2cc(-c3c[nH]c4ncc(-c5ccc(N6CCC(CC7CCN(C(=O)c8ccc(Cl)c(N9CCC(=O)NC9=O)c8)CC7C)CC6)cc5)nc34)cn2)CC1 (stereo not given) | 
0.055 | 86 | CCN1CCC(n2cc(-c3c[nH]c4ncc(-c5cnc(OCCNC(=O)c6ccc(Cl)c(N7CCC(=O)NC7=O)c6)c(C)c5)nc34)cn2)CC1 | 
0.0292 | 87 | CCn1cc(-c2c[nH]c3ncc(-c4ccc(N5CCC(CC6CCN(C(=O)c7ccc(Cl)c(N8CCC(=O)NC8=O)c7)CC6)CC5)nc4)nc23)cn1 | 
0.0187 | 81 | O=C1CCN(c2cc(C(=O)N3CCC(CC4CCN(c5ccc(-c6cnc7[nH]cc(-c8cnn(CC(F)F)c8)c7n6)cn5)CC4)CC3)ccc2Cl)C(=O)N1 | 
